Here are results for 13 molecules from patent US7230017B2, “Dihydropyridinone derivatives” (Bayer Healthcare AG, priority 2002, dated 2007).

In the first test the target is T1, human neutrophil elastase (HNE) (Homo sapiens, UniProt P08246).
T1 construct: purchased SERVA Electrophoresis GmbH, Heidelberg, Germany #20927.01
T1 sequence (P08246 30-267): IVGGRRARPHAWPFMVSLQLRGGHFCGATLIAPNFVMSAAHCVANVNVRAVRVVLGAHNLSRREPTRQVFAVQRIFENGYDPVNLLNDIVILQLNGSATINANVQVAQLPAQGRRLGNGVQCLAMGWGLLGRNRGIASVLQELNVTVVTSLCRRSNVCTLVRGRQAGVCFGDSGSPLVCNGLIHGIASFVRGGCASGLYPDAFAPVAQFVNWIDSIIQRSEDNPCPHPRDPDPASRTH
Kind of test: In vitro inhibition of HNE using a fluorogenic peptide substrate (continuous read-out signal, 384 MTP assay format). It is filed as biochemical. The settings on record: substrate MeOSuc-Ala-Ala-Pro-Val-AMC, 37° C. The method, then:
I. In Vitro Enzyme Assays of Human Neutrophil Elastase (HNE)
assay buffer: 0.1 M HEPES-NaOH buffer pH 7.4, 0.5 M NaCl, 0.1% (w/v) bovine serum albumin;
suitable concentration (see below) of substrate in assay buffer;
suitable concentration of test compounds diluted with assay buffer from a 10 mM stock solution in DMSO.
The test solution is prepared by mixing 10 μl of test compound dilution, 20 μl of HNE enzyme dilution (final concentration 8–0.4 μU/ml, routinely 2.1 μU/ml) and 20 μl of substrate dilution (final concentration 1 mM–1 μM, routinely 20 μM), respectively. The solution is incubated for 0–2 hrs at 37° C. (routinely one hour). The fluorescence of the liberated AMC due to the enzymatic reaction is measured at 37° C. (TECAN spectra fluor plus plate reader). […] IC50 values are determined by RFU-versus-[I] plots. Km and Km(app.) values are determined by Lineweaver-Burk plots and converted to Ki values by Dixon plots.
Consider `CC1=C(C#N)C(c2ccc(C#N)cc2)C(C(N)=O)C(=O)N1c1cccc(C(F)(F)F)c1` (single isomer, unassigned; (-)) [Example 98, (−)-5-Cyano-4-(4-cyanophenyl)-6-methyl-2-oxo-1-[3-(trifluoromethyl)phenyl]-1,2,3,4-tetrahydro-3-pyridinecarboxamide], for which the IC50 came out at 8 nM. The same measure, in the same setting: then `CCOC(=O)C1=C(C)N(c2cccc(C(F)(F)F)c2)C(=O)C(C(=O)OCC)C1c1ccc(C#N)cc1` (stereo not shown) [Example 1], with 30 nM; and `CCOC(=O)C1=C(C)N(c2cccc(C(F)(F)F)c2)C(=O)C(C(N)=O)C1c1ccc(C#N)cc1` (stereo not shown) [Example 3], with 20 nM; and `CC1=C(C#N)C(c2ccc(C#N)cc2)C(C(N)=O)C(=O)N1c1cccc(C(F)(F)F)c1` (stereo not shown) [Example 7, 5-Cyano-4-(4-cyanophenyl)-6-methyl-2-oxo-1-[3-(trifluoromethyl)phenyl]-1,2,3,4-tetrahydro-3-pyridinecarboxamide], with 13 nM.

Consider `CC1=C(C#N)C(c2ccc(C#N)cc2)C(C(=O)N(C)C)C(=O)N1c1cccc(C(F)(F)F)c1` (stereo not shown) [Example 12, 5-Cyano-4-(4-cyanophenyl)-N,N,6-trimethyl-2-oxo-1-[3-(trifluoromethyl)phenyl]-1,2,3,4-tetrahydro-3-pyridinecarboxamide], for which the IC50 amounted to 25 nM. The same measure, in the same setting: in the case of `CC(=O)C1=C(C)N(c2cccc(C(F)(F)F)c2)C(=O)C(C(=O)N(C)C)C1c1ccc(C#N)cc1` (stereo not shown) [Example 13, 5-Acetyl4-(4-cyanophenyl)-N,N,6-trimethyl-2-oxo-1-[3-(trifluoromethyl)phenyl]-1,2,3,4-tetrahydro-3-pyridinecarboxamide] it was 25 nM.

For `CCOC(=O)C1=C(C)N(c2cccc(C(F)(F)F)c2)C(=O)C(C(=O)OCC)C1c1cc2cc(C#N)ccc2o1` (stereo not shown) [Example 15, Diethyl 4-(5-cyano-1-benzofuran-2-yl)-6-methyl-2-oxo-1-[3-(trifluoromethyl)phenyl]-1,2,3,4-tetrahydro-3,5-pyridinedicarboxylate], the IC50 came to 200 nM. On the same count and under the same terms, then `CC1=C(C#N)C(c2ccc(C#N)cc2)C(C(=O)NCCC(=O)O)C(=O)N1c1cccc(C(F)(F)F)c1` (stereo not drawn) [Example 19, N-({5-Cyano-4-(4-cyanophenyl)-6-methyl-2-oxo-1-[3-(trifluoromethyl)phenyl]-1,2,3,4-tetrahydro-3-pyridinyl}carbonyl)-β-alanine], with 25 nM; and `COCCNC(=O)C1C(=O)N(c2cccc(C(F)(F)F)c2)C(C)=C(C#N)C1c1ccc(C#N)cc1` (stereo not shown) [Example 20, 5-Cyano-4-(4-cyanophenyl)-N-(2-methoxyethyl)-6-methyl-2-oxo-1-[3-(trifluoromethyl)phenyl]-1,2,3,4-tetrahydro-3-pyridinecarboxamide], with 30 nM. On the same count and under the same terms, in the case of `CC1=C(C#N)C(c2ccc(C#N)cc2)C(C(=O)NCCO)C(=O)N1c1cccc(C(F)(F)F)c1` (stereo not shown) [Example 68, 5-Cyano-4-(4-cyanophenyl)-6-methyl-2-oxo-1-[3-(trifluoromethyl)phenyl]-1,2,3,4-tetrahydropyridine-3-carboxylic acid (2-hydroxyethyl)amide] it was 15 nM; in that of `CCNC(=O)C1=C(C)N(c2cccc(C(F)(F)F)c2)C(=O)CC1c1ccc(C#N)cc1` (stereo not shown) [Example 77], 350 nM.

A further test relates to human polymorphonuclear cells (PMNs). Kind of test: In vitro PMN elastolysis assay (3H-elastin). It is filed as cell-based. The settings on record: at 1.2 μM; n=3 different donors at 3.6×10^5 cells per well; 4 hours at 37° C. The protocol:
In Vitro PMN Elastolysis Assay
This assay is used to determine the elastolytic potential of human polymorphonuclear cells (PMNs) and assess the proportion of degradation due to neutrophil elastase [cf. Z. W. She et al., Am. J. Respir. Cell. Mol. Biol. 9, 386–392 (1993)].
Tritiated elastin, in suspension, is coated on to a 96 well plate at 10 μg per well. Test and reference [ZD-0892 (J. Med. Chem. 40, 1876–1885, 3173–3181 (1997), WO 95/21855) and al protease inhibitor (α1PI)] compounds are added to the wells at the appropriate concentrations. Human PMNs are separated from peripheral venous blood of healthy donors and resuspended in culture media. The neutrophils are added to the coated wells at concentrations ranging between 1×10^6 to 1×10^5 cells per well. Porcine pancreatic elastase (1.3 μM) is used as a positive control for the assay, and α1PI (1.2 μM) is used as the positive inhibitor of neutrophil elastase. The cellular control is PMNs without compound at each appropriate cell density. The cells plus compounds are incubated in a humidified incubator at 37° C. for 4 hours. The plates are centrifuged to allow the harvest of cell supernatant only. […] The plates are dried until no liquid is visible in the wells and read in a beta counter for 3 minutes per well. […]
The compounds of this invention are evaluated for their inhibitory activity in this HNE-dependent model of neutrophil elastolysis.
Turning to “α1PI: al protease inhibitor (α1PI), used as the positive inhibitor of neutrophil elastase”, the “inhibition of elastolysis (mean±s.e.m.)” value is given as 83.46±3.97%.

Still in this test, the particulars now being: n=2 different donors at 3.6×10^5 cells per well; 4 hours at 37° C.; read-out: IC50 (mean±s.e.m.).
For the molecule `COc1ccc(C(=O)N[C@H](C(=O)N2CCC[C@H]2C(=O)N[C@H](C(=O)C(F)(F)F)C(C)C)C(C)C)cc1` [ZD-0892], the IC50 turned out to be 45.5 ± 7.75 nM.

Usually IC50 stands for the concentration that inhibits the measured activity by half.
